Molecules are shown by their SMILES.

The target in one test is T1, ROS1-wt kinase domain (Homo sapiens, UniProt P08922).
T1 construct: TRKA-wt (1 nM, BPS Bio, 40280) kinase domains in buffer; purchased Carna 08-163
Nature of the test: Biochemical kinase assay, ROS1-wt. Particulars: 2 mM ATP substrate solution, read-out: Ki^app ROS1-wt. The gist of the method: (§1)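 Kinase domains (in kinase solution: ROS1-G2032R 0.5 nM, ROS1-wt 0.6 nM, TRKA 1 nM, ALK L1196M/G1202R 3 nM) were mixed with compound and a substrate solution of 2 mM ATP plus 26 μM fluorogenic AQT0101 (ALK, ROS1) or AQT0104 (TRKA) in HEPES pH 7.5/MgCl2. Fluorescence was followed for 120 min at 30° C; Ki^app was obtained by Morrison fit of initial rates.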

The next test addresses T2, TRKA-wt kinase domain (Homo sapiens, UniProt P04629).
T2 construct: TRKA-wt (1 nM, BPS Bio, 40280) kinase domains in buffer; purchased BPS Bio 40280
Nature of the test: Biochemical kinase assay, TRKA-wt. The following applies: 2 mM ATP substrate solution, read-out: Ki^app TRKA-wt. The gist of the method:
as §1

For test [1], the target named is T3, ALK L1196M/G1202R kinase domain (Homo sapiens, UniProt Q9UM73, G1202R/L1196M).
T3 construct: TRKA-wt (1 nM, BPS Bio, 40280) kinase domains in buffer; purchased SignalChem A19-12NG
Nature of the test: Biochemical kinase assay, ALK L1196M/G1202R. The following applies: 2 mM ATP substrate solution, read-out: Ki^app ALK-L1196M-G1202R. The gist of the method: as §1

A further test concerns the target T4, ALK-wt kinase domain (Homo sapiens, UniProt Q9UM73).
T4 construct: TRKA-wt (1 nM, BPS Bio, 40280) kinase domains in buffer; purchased Carna 08-518
In words: Biochemical kinase assay, ALK-wt. The following applies: 2 mM ATP substrate solution, read-out: Ki^app ALK-wt. The gist of the method: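 Apparent Ki values come from fitting initial reaction rates against inhibitor concentration to the Morrison equation. Rates were taken from the linear phase of fluorogenic substrate phosphorylation (AQT0101 for ALK and ROS1, AQT0104 for TRKA; 26 μM in substrate solution with 2 mM ATP), monitored at 485 nm over 120 min at 30° C.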

The target in test [2] is T5, ROS1-G2032R kinase domain (Homo sapiens, UniProt P08922, G2032R).
T5 construct: TRKA-wt (1 nM, BPS Bio, 40280) kinase domains in buffer; purchased SignalChem R14-12BG
In words: Biochemical kinase assay, ROS1-G2032R. Particulars: 2 mM ATP substrate solution, read-out: Ki^app ROS1-G2032R. In outline:
as §1

`C[C@H]1Oc2cc(cnc2N)-c2c(C#N)nn(C)c2Cc2cc(C(F)(F)F)nn2-c2ccc(F)cc21` [Compound 104]: the Ki at ROS1-wt kinase domain was below 50 nM; on TRKA-wt kinase domain, above 500 nM; in test [1] it was below 50 nM; at ALK-wt kinase domain it was below 50 nM; in test [2], below 50 nM.

In the case of `C[C@H]1Oc2cc(cnc2N)-c2c(C#N)nn(C)c2Cc2cc(F)cnc2-c2ccc(F)cc21` [Compound 105], the Ki was below 50 nM at ROS1-wt kinase domain; above 500 nM on TRKA-wt kinase domain; below 50 nM in test [1]; below 50 nM on ALK-wt kinase domain; below 50 nM in test [2].

With `C[C@H]1Oc2cc(cnc2N)-c2c(nnn2CC2CC2)Cc2cc(F)cnc2-c2ccc(F)cc21` [Compound 106], the Ki on ROS1-wt kinase domain was below 50 nM; at TRKA-wt kinase domain, 50 to 500 nM; in test [1] it was below 50 nM; at ALK-wt kinase domain it was below 50 nM; in test [2] it was below 50 nM.

Consider `CCn1nnc2c1-c1cnc(N)c(c1)O[C@H](C)c1cc(F)ccc1-n1nc(C(F)(F)F)cc1C2` [Compound 107], for which the Ki is below 50 nM at ROS1-wt kinase domain; 50 to 500 nM on TRKA-wt kinase domain; below 50 nM in test [1]; below 50 nM on ALK-wt kinase domain; below 50 nM in test [2].

Turning to `C[C@H]1Oc2cc(cnc2N)-c2c(nnn2CC2CC2)Cc2cc(Cl)nn2-c2ccc(F)cc21` [Compound 108], the Ki at ROS1-wt kinase domain is below 50 nM; on TRKA-wt kinase domain, 50 to 500 nM; in test [1], below 50 nM; on ALK-wt kinase domain, below 50 nM; in test [2], below 50 nM.

As for `Cc1cc2n(n1)-c1ccc(F)cc1[C@@H](C)Oc1cc(cnc1N)-c1c(cnn1CC1CC1)C2` [Compound 109], the Ki (at ROS1-wt kinase domain; on TRKA-wt kinase domain; in test [1]; at ALK-wt kinase domain; in test [2]) was below 50 nM throughout.

In the case of `Nc1ncc2cc1OCc1cc(F)ccc1-n1nc(Cl)cc1Cc1nnn(CC3CC3)c1-2` [Compound 110], the Ki was below 50 nM at ROS1-wt kinase domain; above 500 nM on TRKA-wt kinase domain; below 50 nM in test [1]; below 50 nM on ALK-wt kinase domain; below 50 nM in test [2].

In the case of `C[C@H]1Oc2cc(cnc2N)-c2c(nn(C)c2C#N)Cc2cn(C)nc2-c2ccc(F)cc21` [Compound 111], the Ki was below 50 nM on ROS1-wt kinase domain; 50 to 500 nM on TRKA-wt kinase domain; below 50 nM in test [1]; below 50 nM on ALK-wt kinase domain; below 50 nM in test [2].

Turning to `C[C@H]1Oc2cc(cnc2N)-c2c(nn(C)c2C#N)Cc2cccnc2-c2ccc(F)cc21` [Compound 112], the Ki at ROS1-wt kinase domain is below 50 nM; on TRKA-wt kinase domain, 50 to 500 nM; in test [1] it was below 50 nM; at ALK-wt kinase domain, below 50 nM; in test [2], below 50 nM.

As for `Cc1nc2c(s1)Cc1nnn(CC3CC3)c1-c1cnc(N)c(c1)O[C@H](C)c1cc(F)ccc1-2` [Compound 114], the Ki on ROS1-wt kinase domain was below 50 nM; on TRKA-wt kinase domain, 50 to 500 nM; in test [1], below 50 nM; on ALK-wt kinase domain it was below 50 nM; in test [2], below 50 nM.

As to `C[C@H]1Oc2cc(cnc2N)-c2c(nnn2CC2CC2)Cc2cccnc2-c2ccc(F)cc21` [Compound 116], the Ki at ROS1-wt kinase domain was below 50 nM; on TRKA-wt kinase domain it was 50 to 500 nM; in test [1], below 50 nM; on ALK-wt kinase domain, below 50 nM; in test [2], below 50 nM.

For `C[C@H]1Oc2cc(cnc2N)-c2c(C#N)nn(C)c2Cc2ccccc2-c2ccc(F)cc21` [Compound 117], the Ki is below 50 nM at ROS1-wt kinase domain; above 500 nM at TRKA-wt kinase domain; below 50 nM in test [1]; below 50 nM at ALK-wt kinase domain; 50 to 500 nM in test [2].

As to `CC(C)n1nc2c(c1C#N)-c1cnc(N)c(c1)O[C@H](C)c1cc(F)ccc1-n1nccc1C2` [Compound 118], the Ki at ROS1-wt kinase domain is below 50 nM; on TRKA-wt kinase domain it was below 50 nM; in test [1], 50 to 500 nM; on ALK-wt kinase domain, below 50 nM; in test [2] it was above 500 nM.

The record behind these values is patent publication US11667649B2, “Heteroaromatic macrocyclic ether chemotherapeutic agents” (Nuvalent, Inc., priority 2020, dated 2023).
